Reference: patent publication US5145783A, “Glyphosate-tolerant 5-endolpyruvyl-3-phosphoshikimate synthase” (Monsanto Company, priority 1990, dated 1992)

Tests used:
[1] = molecular target: T1, wild-type maize EPSP synthase (Zea mays, UniProt A0A1D6NVZ6); assay: EPSP synthase activity of in vitro translation product of pMON9951; type: biochemical; conditions: 1.0 mM glyphosate
T1 sequence (A0A1D6NVZ6 1-506): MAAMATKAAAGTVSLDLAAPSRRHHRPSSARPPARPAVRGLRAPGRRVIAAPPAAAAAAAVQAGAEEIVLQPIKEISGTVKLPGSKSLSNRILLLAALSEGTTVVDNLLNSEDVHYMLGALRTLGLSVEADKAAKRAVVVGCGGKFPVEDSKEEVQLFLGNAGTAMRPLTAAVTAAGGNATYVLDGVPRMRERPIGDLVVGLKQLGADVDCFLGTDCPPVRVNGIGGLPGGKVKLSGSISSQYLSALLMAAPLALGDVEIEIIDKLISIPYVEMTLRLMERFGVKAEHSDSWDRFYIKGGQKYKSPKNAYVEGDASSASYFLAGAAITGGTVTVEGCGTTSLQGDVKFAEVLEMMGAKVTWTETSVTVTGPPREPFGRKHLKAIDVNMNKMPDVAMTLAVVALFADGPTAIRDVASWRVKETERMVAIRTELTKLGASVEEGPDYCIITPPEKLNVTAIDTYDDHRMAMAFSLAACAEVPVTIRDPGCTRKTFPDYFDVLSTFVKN
Protocol: The linearized plasmid DNA was transcribed in vitro with T7 polymerase essentially as described by Krieg et al. 1984. The standard reaction buffer contained 40 mM Tris-HCl (pH 7.9), 6 mM MgCl2, 10 mM dithiothreitol, 2 mM spermidine, 80 U RNAsin ribuonuclease inhibitor, 0.5 mM each of ATP, GTP, CTP and UTP, in a final reaction volume of 100 μl. The final RNA pellet was resuspended in 20 μl of sterile water and stored at -80° C. A standard translation reaction contained 100 μl of nuclease-treated rabbit reticulocyte lysate, 5.7 μl of a 19-amino acid mixture (minus methionine at 1 mM each, 5.7 μl of RNA (total RNA transcripts derived from 0.63 μg of plasmid DNA), 16 μl RNAsin (20U/μl) ribonuclease inhibitor, and 58.3 μl of [^35 S] methionine (14-15 mCi/ml). The in vitro translation products were stored frozen at -80 ° C.
The products of the in vitro translation were then assayed for EPSP synthase activity as described herein.

[2] = molecular target: petunia EPSP synthase with alanine for the first glycine of the conserved region (Petunia hybrida, UniProt P11043, G170A); assay: Glyphosate sensitivity of petunia EPSP synthase with alanine for the first glycine of the conserved region; type: biochemical; conditions: alanine inserted for the first glycine of the conserved region
petunia EPSP synthase with alanine for the first glycine of the conserved region, sequence (P11043 73-516 G170A): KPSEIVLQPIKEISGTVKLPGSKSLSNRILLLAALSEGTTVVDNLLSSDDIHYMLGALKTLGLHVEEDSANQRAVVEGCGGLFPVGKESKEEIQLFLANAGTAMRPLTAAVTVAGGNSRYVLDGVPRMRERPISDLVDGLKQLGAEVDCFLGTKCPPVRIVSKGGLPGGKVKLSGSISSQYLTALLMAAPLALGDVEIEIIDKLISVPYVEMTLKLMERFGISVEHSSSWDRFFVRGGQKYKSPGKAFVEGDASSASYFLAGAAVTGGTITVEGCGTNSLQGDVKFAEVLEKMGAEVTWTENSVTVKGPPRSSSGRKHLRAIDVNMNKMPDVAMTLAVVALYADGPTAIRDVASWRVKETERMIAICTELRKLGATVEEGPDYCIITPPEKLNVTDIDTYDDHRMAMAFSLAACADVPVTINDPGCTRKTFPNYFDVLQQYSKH
Excerpt: The EPSP synthase sequences shown in FIG. 2 represent a broad evolutionary range of source materials for EPSP synthases. […] However, those skilled in the art will recognize that a particular EPSP synthase may be produced by and isolated from another source material which may not have the exact sequence of the conserved region.

[3] = molecular target: T2, Arabidopsis EPSP synthase with the alanine for glycine substitution at position 101 (Arabidopsis thaliana, UniProt P05466, G177A); assay: EPSP synthase activity in protein extracts of Brassica napus calli transformed with pMON600; type: biochemical
T2 construct: the expressed Arabidopsis EPSP synthase would include the alanine for glycine substitution at position 101 of the mature enzyme; expressed in transfected cells; host or cells: Brassica napus calli transformed by Agrobacterium harboring pMON600, protein extract
T2 sequence (P05466 77-520 G177A): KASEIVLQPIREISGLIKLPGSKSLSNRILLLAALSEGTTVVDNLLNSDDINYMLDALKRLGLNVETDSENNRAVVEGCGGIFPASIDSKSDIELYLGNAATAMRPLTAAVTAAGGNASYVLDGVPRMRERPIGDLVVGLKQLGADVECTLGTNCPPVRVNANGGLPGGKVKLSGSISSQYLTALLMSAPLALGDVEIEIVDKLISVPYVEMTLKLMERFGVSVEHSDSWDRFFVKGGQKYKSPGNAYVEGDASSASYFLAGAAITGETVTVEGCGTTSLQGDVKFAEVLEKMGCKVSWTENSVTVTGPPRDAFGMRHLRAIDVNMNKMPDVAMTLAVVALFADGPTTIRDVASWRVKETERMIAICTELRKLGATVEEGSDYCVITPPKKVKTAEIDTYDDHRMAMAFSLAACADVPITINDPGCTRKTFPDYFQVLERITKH
Protocol: The Agrobacterium harboring the pMON600 plasmid was used to transform explants of Brassica napus. Three gentamicin resistant calli were obtained. […] Proteins were extracted from samples of the calli and were assayed for EPSP synthase activity. All three of the calli contained EPSP synthase activity that was resistant to 0.5 mM glyphosate.
The EPSP synthase in the extracts was further characterized by titrating the resistance to glyphosate.

[4] = system: tobacco plants transformed with wild-type EPSP synthase gene; assay: Relative effect of glyphosate spray on transformed tobacco, wild-type gene; type: in vivo, Nicotiana tabacam CV H425; set-up: key: 0 = total kill, 10 = normal unsprayed plant; conditions: WT
Excerpt: A culture of A. tumefaciens cells containing pMON567/pGV3111-SE was contacted with leaf disks taken from tobacco plants (Nicotiana tabacam CV H425) as described by Horsch (1985). The Agrobacterium cells inserted the mutant EPSP synthase gene into the chromosomes of the plant cells. Plant cells resistant to kanamycin were selected and regenerated into differentiated plants by the procedure of Horsch (1985).
Progeny of these plants were propagated and grown to a rosette diameter of about 10 cm corresponding to a plant age of about four weeks. The plants were sprayed with glyphosate at levels corresponding to 2.0 and 3.6 pounds acid equiv./acre. […] The effect was translated to a numerical scale of 0-10 in which 0 represents total kill and 10 is the normal, unsprayed plant. […] The values represent the best transformant for both wild-type EPSP synthase and glyphosate-tolerant EPSP synthase genes.

SMILES: O=C(O)CNCP(=O)(O)O [glyphosate, N-phosphonomethylglycine]
- EPSP synthase activity in the presence of glyphosate [1]: no activity was detected
- change in glyphosate sensitivity versus wild-type petunia EPSP synthase [2]: no attendant changes in glyphosate sensitivity
- IC50 [3]: 7.5 mM
- EPSP synthase activity in the presence of glyphosate ([3]; 0.5 mM glyphosate, all three calli): resistant
- Relative effect of glyphosate (0 total kill, 10 no effect) ([4]; 0.4 Pounds/Acre, Day 7, best transformant): 6.0
- Relative effect of glyphosate (0 total kill, 10 no effect) ([4]; 0.4 Pounds/Acre, Day 14, best transformant): 7.0
- Relative effect of glyphosate (0 total kill, 10 no effect) ([4]; 0.4 Pounds/Acre, Day 28, best transformant): 9.0
- Relative effect of glyphosate (0 total kill, 10 no effect) ([4]; 2.0 Pounds/Acre, Day 7, best transformant): 5.0
- Relative effect of glyphosate (0 total kill, 10 no effect) ([4]; 2.0 Pounds/Acre, Day 14, best transformant): 1.8
- Relative effect of glyphosate (0 total kill, 10 no effect) ([4]; 2.0 Pounds/Acre, Day 28, best transformant): 0.8
- Relative effect of glyphosate (0 total kill, 10 no effect) ([4]; 3.6 Pounds/Acre, Day 7, best transformant): 5.0
- Relative effect of glyphosate (0 total kill, 10 no effect) ([4]; 3.6 Pounds/Acre, Day 14, best transformant): 1.7
- Relative effect of glyphosate (0 total kill, 10 no effect) ([4]; 3.6 Pounds/Acre, Day 28, best transformant): 0.8
